Where two headings read alike, the source gives them in different places.

A short description of series [1]: Protection against aggressions of the hypoxic type (mortality induced by oxydipentonium chloride). Particulars: Mus musculus, ip, 1 h, read-out: Proportion of survivors, Animals treated. The format is in vivo, mice. How it is done: Protection against aggressions of the hypoxic type was shown by a reduction of mortality induced by a curarizer, the action time of which is short, namely oxydipentonium chloride (Brevatonal). At the doses used, this curarizer brings about respiratory depression which, in turn, gives rise to a hypoxi-hypercapnic syndrome.
A compound capable of protecting the brain during this short period of hypoxia ensures survival. The compounds are administered to groups of 10 mice one hour before the injection of the curarizer. At the same time, a control group of 10 mice received physiological salt solution before the curarizer. This test has also been developed in our laboratories (see S. LEVIS et al., Arch.Int.Pharmacodyn.Therap.93, (1953,no. 1), 46-54).

Series [2] is described as follows: Toxicity by intraperitoneal administration (Irwin's test). The format is in vivo. The note with it: for Dose mg/kg (dose which brings about the death of one animal out of eight in Irwin's test): mouse. The text has this: The compounds tested have a remarkably low toxicity.
*Dose which brings about the death of one animal out of eight in Irwin's
test (S. IRWIN, Gordon Research Conference on Medicinal Chemistry, Colby
Junior College, New London, 1959).

The nature of series [3]: spinal fixation time (spinal section 35 minutes after onset of asymmetry). It is filed as in vivo, rat. The text has this: (b) The action on mnemic processes is also shown by the reduction of the spinal fixation time, a test which has been described in literature (T. J. CHAMBERLAIN et al., J.Neuro-Physiol.26, (1963,no. 4), 662-673; C. GIURGEA and F. MOURAVIEFF-LESUISSE, Arch.Int.Pharmacodyn.Therap.191, (1971,no. 2), 279) as an elementary memory model and which provides pharmacological reactivity in good correlation with clinical physiopathology. In the rat, after unilateral lesion of the cerebellum, there is a postural asymmetry of the hind paws. This asymmetry may persist, even after spinal section, if the animal has passed a sufficiently long time in this position.
This time, which is called the spinal fixation time, is 45 minutes under the experimental conditions applied here.
On the other hand, if the spinal section is performed before the expiry of this period of time, for example 35 minutes after the onset of the asymmetry, the latter disappears.
No animal treated with placebos retains asymmetry under these conditions.
Inversely, any product which allows the rats to retain the asymmetry (thus effecting spinal fixation) when the spinal section is performed after 35 minutes, is considered to be active.
The compounds were all tested at a dosage of […]. The minimum active doses were not sought, except for compound No. 1 and for piracetam. […] By "number of animals" is to be understood the number of animals which responded positively to the test, in relation to the number of animals tested at the indicated dose: […]

A short description of series [4]: Toxicity when administered intravenously or orally (LD50). The note with it: in vivo, rat. The text has this: Furthermore, in the rat, the compounds tested also have a low toxicity when administered intravenously or orally, as shown by the results given in the following Table V: […]
The nature of series [5]: active avoidance test (memory retention; paw withdrawal reaction threshold). The note with it: for minimal effective dose: sc. The format is in vivo, rat. The text has this:
The pressure at which the withdrawal reaction takes place is called the reaction threshold. This threshold is expressed by the figure read on a scale graduated in cm of the apparatus used (Analgesy-meter Ugo Basile, Milan) and thus corresponds to the minimum pressure which brings about withdrawal when applied to the animal's paw.

The mark [6] stands for this setting: Rattus norvegicus, ip, read-out: Active dose mM/kg (minimum active dose).
Where [7] appears, read: Rattus norvegicus, ip, read-out: Active dose mg/kg (minimum active dose).
The mark [8] stands for this setting: iv, i.v., read-out: LD50 mg/kg (rat).
The mark [9] stands for this setting: iv, i.v., read-out: LD50 - mM/kg.
[10] abbreviates: po, per os, read-out: LD50 mg/kg (rat).
Setting [11] is: po, per os, read-out: LD50 - mM/kg.
The mark [12] stands for this setting: rat, subcutaneous, tested 24 hours later, read-out: Active dose mM/kg (minimum dose lowering the stimulus below 11 graduations; mM = millimole).
[13] abbreviates: rat, subcutaneous, tested 24 hours later, read-out: Active dose mg/kg (minimum dose lowering the stimulus below 11 graduations).
Where [14] appears, read: ip, 35 min, rat, intraperitoneal, 0.32 mM/kg, read-out: Number of animals which responded positively to the test, in relation to the number of animals tested (converted).
Setting [15] is: mice, intraperitoneal, 0.1 mM/kg, one hour before the curarizer, control animals 3/20 (1), 1/10 (2, 18, 26), 0/10 (14, 32), 2/10 (28).

With `O=C(NCN1CCCC1=O)NCN1CCCC1=O` [Compound No. 1, 1,3-bis[(2-oxo-pyrrolidino)methyl]-urea], the responders at 32 µM, 32 µmol/kg in series [1] was 70%. The responders at 100 µM, 100 µmol/kg in series [1] was 60%. Besides, the responders at 2.5 mg/kg in series [1] is 33.3%. Besides, the “Dose mM/kg - mouse (dose which brings about the death of one animal out of eight in Irwin's test)” value (from here on “Dose mM/kg - mouse”) in series [2] was more than 6 mM/kg. In addition, the “Dose mg/kg (dose which brings about the death of one animal out of eight in Irwin's test)” value (“Dose mg/kg” for short) in series [2] was more than 1530 mg/kg. Moreover, the minimal effective dose in series [3] (setting [6]) stood at 100 µmol/kg; in series [3] (setting [7]), 25 mg/kg; in series [5] (setting [12]), 0.01 µmol/kg; in series [5] (setting [13]), 0.0025 mg/kg. In series [3] (ip, 35 min, rat, intraperitoneal, 0.1 mM/kg (25.0 mg/kg), read-out: Number of animals which responded positively to the test, in relation to the number of animals tested (converted)), the responders at 100 µM, 25 mg/kg was 63.6%. In addition, the “activity relative to piracetam (spinal fixation time)” value in series [3] (rat, intraperitoneal) is “more active than piracetam”. The LD50 in series [4] (setting [8]) was more than 5600 mg/kg; in series [4] (setting [9]), more than 22000 µmol/kg; in series [4] (setting [10]), more than 10000 mg/kg; in series [4] (setting [11]), more than 39000 µmol/kg.

For the compound `O=C(NCN1CCCCCC1=O)NCN1CCCCCC1=O` [Compound No. 4, 1,3-bis[(hexahydro-2-oxo-1H-azepin-1-yl)methyl]-urea], the “Dose mM/kg - mouse” value in series [2] is reported as 3 mM/kg. In addition, in series [2], the “Dose mg/kg” value stood at 930 mg/kg. Moreover, the responders at 320 µM, 320 µmol/kg in series [3] (setting [14]) is 66.7%. The minimal effective dose in series [5] (setting [12]) came out at 0.005 µmol/kg; in series [5] (setting [13]), 0.0015 mg/kg.

With `CC1C(=O)N(CNC(=O)NCN2CC(c3ccc(Cl)cc3)C(C)C2=O)CC1c1ccc(Cl)cc1` (stereo not shown) [Compound No. 7, 1,3-bis[(4-p-chlorophenyl-3-methyl-2-oxo-pyrrolidino)methyl]-urea], in series [2], the “Dose mM/kg - mouse” value was more than 3 mM/kg and the “Dose mg/kg” value is more than 1509 mg/kg. For the same compound, the responders at 320 µM, 320 µmol/kg in series [3] (setting [14]) was 66.7%. The minimal effective dose in series [5] (setting [12]) came to 5 µmol/kg. Moreover, the minimal effective dose in series [5] (setting [13]) worked out at 1.01 mg/kg.

Consider `CC1CCC(=O)N1CNC(=O)NCN1C(=O)CCC1C` (stereo not shown) [Compound No. 8, 1,3-bis[(5-methyl-2-oxo-pyrrolidino)methyl]-urea], for which, in series [2], the “Dose mM/kg - mouse” value is on record as more than 3 mM/kg and the “Dose mg/kg” value is recorded as more than 746 mg/kg. In addition, in series [3] (setting [14]), the responders at 320 µM, 320 µmol/kg is 57.1%. For the same compound, the minimal effective dose in series [5] (setting [12]) is 5 µmol/kg. The minimal effective dose in series [5] (setting [13]) worked out at 1.41 mg/kg.

With `CC(NC(=O)NC(C)N1CCCC1=O)N1CCCC1=O` (stereo not shown) [Compound No. 11, 1,3-bis[1-(2-oxo-pyrrolidino)ethyl]-urea], in series [1] (mice, intraperitoneal, 0.032 mM/kg, one hour before the curarizer, control animals 3/20 (compound 1), 1/10 (compound 11)), the responders at 32 µM, 32 µmol/kg worked out at 70%. Besides, the “Dose mM/kg - mouse” value in series [2] is reported as more than 3 mM/kg. For the same compound, the “Dose mg/kg” value in series [2] is on record as more than 846 mg/kg. The minimal effective dose in series [5] (setting [12]) came to 0.005 µmol/kg; in series [5] (setting [13]), 0.0014 mg/kg.

For `CC1CC(=O)N(CNC(=O)NCN2C(=O)CC(C)C2C)C1C` (stereo not shown) [compound 14, 1,3-bis[(4,5-dimethyl-2-oxo-pyrrolidino)methyl]-urea], the responders at 100 µM, 100 µmol/kg in series [1] (setting [15]) was determined as 50%. In addition, the “Dose mM/kg - mouse” value in series [2] is given as more than 3 mM/kg. In series [2], the “Dose mg/kg” value was 930 mg/kg. Further, the minimal effective dose is 10 µmol/kg in series [5] (setting [12]) and 3.1 mg/kg in series [5] (setting [13]).

As for `O=C(NCCN1CCCC1=O)NCCN1CCCC1=O` [compound 20, 1,3-bis[2-(2-oxo-pyrrolidino)ethyl]-urea], in series [2], the “Dose mM/kg - mouse” value is reported as more than 3 mM/kg and the “Dose mg/kg” value is more than 846 mg/kg. The responders at 320 µM, 320 µmol/kg in series [3] (setting [14]) was 42.9%. The minimal effective dose in series [5] (setting [12]) amounted to 0.05 µmol/kg. For the same compound, the minimal effective dose in series [5] (setting [13]) turned out to be 0.014 mg/kg.

Turning to `CCC(CNC(=O)NCC(CC)N1CCCC1=O)N1CCCC1=O` (stereo not shown) [compound 22], in series [2], the “Dose mM/kg - mouse” value is on record as more than 3 mM/kg and the “Dose mg/kg” value is on record as more than 1014 mg/kg. In series [3] (setting [14]), the responders at 320 µM, 320 µmol/kg is 71.4%. Moreover, the minimal effective dose in series [5] (setting [12]) turned out to be 0.02 µmol/kg. For the same compound, in series [5] (setting [13]), the minimal effective dose came to 0.0067 mg/kg.

On to `O=C(NCCCN1CCCC1=O)NCCCN1CCCC1=O` [compound 23, 1,3-bis[3-(2-oxo-pyrrolidino)propyl]-urea], for which, in series [2], the “Dose mM/kg - mouse” value is more than 3 mM/kg and the “Dose mg/kg” value is on record as 931.2 mg/kg. In addition, in series [3] (setting [14]), the responders at 320 µM, 320 µmol/kg is 50%.

As for `O=C1CCC(c2ccc(Cl)cc2)CN1CNC(=S)NCN1CC(c2ccc(Cl)cc2)CCC1=O` (stereo not shown) [compound 24, 1,3-bis[(5-p-chlorophenyl-2-oxo-piperidino)methyl]-2-thiourea], in series [2], the “Dose mM/kg - mouse” value is more than 3 mM/kg and the “Dose mg/kg” value is reported as more than 1039 mg/kg. Moreover, the responders at 320 µM, 320 µmol/kg in series [3] (setting [14]) is 42.9%.

In the case of `O=C(NCN1CCCCCC1=O)NCN1CCCC1=O` [compound 32, 1-[(hexahydro-2-oxo-1H-azepin-1-yl)methyl]-3-[(2-oxo-pyrrolidino)methyl]-urea], the responders at 100 µM, 100 µmol/kg in series [1] (setting [15]) was 30%. In addition, in series [1] (mice, intraperitoneal, 0.32 mM/kg, one hour before the curarizer, control animals 1/10 (18), 2/10 (28), 0/10 (32, piracetam)), the responders at 320 µM, 320 µmol/kg came to 60%. In series [2], the “Dose mM/kg - mouse” value was more than 3 mM/kg and the “Dose mg/kg” value is more than 846 mg/kg.

As to `CC1CCN(CNC(=O)NCN2CCC(C)C2=O)C1=O` (stereo not shown) [compound 34, 1,3-bis[(3-methyl-2-oxo-1-pyrrolidino)methyl]-urea], in series [2], the “Dose mM/kg - mouse” value was more than 6 mM/kg and the “Dose mg/kg” value is given as more than 1692 mg/kg. Moreover, the responders at 320 µM, 320 µmol/kg in series [3] (setting [14]) was 50%.

With `NC(=O)CN1CCCC1=O` [piracetam, 2-oxo-1-pyrrolidineacetamide, reference compound], the responders at 320 µM, 320 µmol/kg in series [1] was 10%; in series [3] (Rattus norvegicus, ip, 35 min, read-out: Number of animals which responded positively to the test, in relation to the number of animals tested), 55.6%. In addition, the responders at 142 mg/kg in series [1] was 40%. Also, in series [1] (mice, intraperitoneal, 454 mg/kg (3.2 mM/kg), one hour before the curarizer, control animals 1/10), the responders at 454 mg/kg worked out at 80%. Also, the minimal effective dose amounted to 320 µmol/kg in series [3] (setting [6]); 45 mg/kg in series [3] (setting [7]); 2.5 µmol/kg in series [5] (Rattus norvegicus, 24 h, read-out: Active dose mM/kg (minimum dose lowering the stimulus below 11 graduations; mM = millimole)); 3.5 mg/kg in series [5] (Rattus norvegicus, 24 h, read-out: Active dose mg/kg (minimum dose lowering the stimulus below 11 graduations)). Moreover, the LD50 in series [4] (setting [8]) is more than 8000 mg/kg; in series [4] (setting [9]), more than 56000 µmol/kg; in series [4] (setting [10]), more than 10000 mg/kg; in series [4] (setting [11]), more than 70000 µmol/kg. Moreover, the degree of retention entry in series [5] (rat, compared with control animals) was “significant degree of retention”.

These data come from US4216221A, “1,3-Disubstituted (2-thio)ureas” (U C B, Societe Anonyme, priority 1977, dated 1980).
